Experimental data reported in paper PMC9230671, “Fluorochrome Selection for Imaging Intraoperative Ovarian Cancer Probes” (Pharmaceuticals, 2022).
Counter-ions that a name gives are not always drawn. Marks after values point to notes of the source that are not given here.

Experiments:
[1] = Fluorescence property measurements (absorption/emission spectra); type: physicochemical; parameters: Stokes Shift: unit not given here
Procedure: The λabs and λem, of the target compounds were measured in aqueous solution (phosphate-buffered saline solution, PBS) at the concentration of 10^−5 M (Table 1).
Fluorescence spectra of all target compounds were determined in PBS and EtOH solutions (Table 1) with a Tecan Infinite 200 Microplate Reader. In all experiments, the excitation and the emission bandpass were set at λ = 5 nm. The emission spectra were obtained from λ = 280 to 850 nm, with excitation set at the appropriate excitation wavelength. Absorption spectra were recorded with a Shimadzu UV-1800 spectrophotometer.

COX-1 = biological target: T1, COX-1 (Ovis aries, UniProt P05979); assay: COX-1 inhibition, COX (ovine/human) inhibitor screening assay kit; type: biochemical; settings: for inhibition at 50 µM: at 50 µM compound final concentration, read-out: COX-1 % inhib.
T1 construct: purchased Cayman Chemicals (bought through Sigma-Aldrich) 560131
T1 sequence (P05979 25-600): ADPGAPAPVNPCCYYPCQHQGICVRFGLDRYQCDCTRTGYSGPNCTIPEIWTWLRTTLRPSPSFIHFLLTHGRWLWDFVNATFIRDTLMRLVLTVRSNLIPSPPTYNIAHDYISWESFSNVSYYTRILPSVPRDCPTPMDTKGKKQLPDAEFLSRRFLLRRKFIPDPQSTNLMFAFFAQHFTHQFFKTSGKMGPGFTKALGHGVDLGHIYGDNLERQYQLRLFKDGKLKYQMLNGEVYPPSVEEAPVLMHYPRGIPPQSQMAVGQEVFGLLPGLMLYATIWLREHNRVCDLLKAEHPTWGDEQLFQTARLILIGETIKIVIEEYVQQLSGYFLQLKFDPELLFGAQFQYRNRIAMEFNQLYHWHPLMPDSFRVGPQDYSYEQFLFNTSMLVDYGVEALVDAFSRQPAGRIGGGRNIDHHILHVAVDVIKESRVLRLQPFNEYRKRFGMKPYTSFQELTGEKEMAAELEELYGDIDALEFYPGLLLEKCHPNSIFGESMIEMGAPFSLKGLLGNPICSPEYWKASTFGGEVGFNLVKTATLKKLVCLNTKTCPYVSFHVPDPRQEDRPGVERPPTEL
Procedure: (§1) Cell culture reagents were purchased from Euroclone (Milan, Italy). COX (ovine/human) inhibitor screening assay kit (Catalog No. 560131, Cayman Chemicals, Ann Arbor, MI, USA) was purchased from Sigma-Aldrich, Burlington, MA, USA. […] The other reagents were purchased from Sigma-Aldrich, Burlington, MA, USA.
(§2) The COX-1/2 inhibition screening experiments were carried out according to the manufacturer’s instructions. The plate was incubated for 60 min at r.t. under shaking and read with the Tecan Infinite 200 Microplate Reader at λ = 405 nm.
(§3) The graph between percent inhibition of the enzyme and corresponding concentration of the compound provided IC50 values for the probe compounds.

COX-2 = biological target: T2, COX-2 (Homo sapiens, UniProt P35354); assay: COX-2 inhibition, COX (ovine/human) inhibitor screening assay kit; type: biochemical; settings: for COX-2 inhibitory activity (in words): up to 50 µM final concentration
T2 construct: purchased Cayman Chemicals (bought through Sigma-Aldrich) 560131
T2 sequence (P35354 18-604): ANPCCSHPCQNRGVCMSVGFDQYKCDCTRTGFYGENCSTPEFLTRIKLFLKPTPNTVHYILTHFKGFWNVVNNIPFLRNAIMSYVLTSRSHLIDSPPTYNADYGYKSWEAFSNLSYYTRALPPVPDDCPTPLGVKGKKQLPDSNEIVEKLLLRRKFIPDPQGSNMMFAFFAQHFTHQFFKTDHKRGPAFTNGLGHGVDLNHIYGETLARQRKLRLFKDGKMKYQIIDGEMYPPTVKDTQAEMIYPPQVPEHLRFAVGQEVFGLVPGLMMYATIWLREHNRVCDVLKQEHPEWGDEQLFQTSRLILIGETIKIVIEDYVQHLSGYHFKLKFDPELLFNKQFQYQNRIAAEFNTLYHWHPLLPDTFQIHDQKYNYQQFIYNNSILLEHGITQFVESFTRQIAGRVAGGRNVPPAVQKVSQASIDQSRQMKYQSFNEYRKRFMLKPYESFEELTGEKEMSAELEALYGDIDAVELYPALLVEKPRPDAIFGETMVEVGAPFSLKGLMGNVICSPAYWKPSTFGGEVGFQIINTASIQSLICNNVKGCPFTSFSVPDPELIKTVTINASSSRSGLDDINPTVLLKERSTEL
Procedure: as §1, §2, §3

[2] = Solubility in PBS (remark); type: physicochemical
Source text: Despite of the solvent, the Stokes shift was very low with this fluorophore.

Structure (SMILES) | melting point | Stokes Shift ([1]; PBS solution, 10^−5 M) | λabs ([1]; PBS solution, 10^−5 M) | λem ([1]; PBS solution, 10^−5 M) | COX-1 inhibitory activity (in words) (COX-1) | IC50 (COX-1) | inhibition at 50 µM (COX-1) | IC50 (COX-2) | COX-2 inhibitory activity (in words) (COX-2) | SI (selectivity index) (COX-1) | Stokes Shift ([1]; ethanol (10^−5 M)) | λabs ([1]; ethanol (10^−5 M)) | λem ([1]; ethanol (10^−5 M)) | solubility in PBS [2]
CCN1/C(=C/C=C/C=C/C=C/C2=[N+](CCCCCC(=O)NCCCCNC(=O)Cc3onc(-c4ccc(OC)cc4)c3-c3ccc(OC)cc3)c3ccc4ccccc4c3C2(C)C)C(C)(C)c2c1ccc1ccccc21 (as salt: chloride) [23 (MSA14), 3-(6-(4-(2-(3,4-Bis(4-methoxyphenyl)isoxazole-5-yl)acetamido)butyl)amino-6-oxohexyl)-2-[7-(1,3-dihydro-1,1-dimethyl-3-ethyl-2H-benz[e]indolin-2-yl-idene)-1,3,5-heptatrienyl]-1,1-dimethyl-3-(6-carboxilato-hexyl)-1H-benz[e]indolium chloride] | 220 °C (dec.) |  |  |  |  |  |  |  |  |  |  |  |  | 
COc1ccc(-c2noc(CC(=O)NCCCCNS(=O)(=O)c3cccc4c(N(C)C)cccc34)c2-c2ccc(OC)cc2)cc1 [Compound 3a, 2-[3,4-Bis(4-methoxyphenyl)isoxazol-5-yl]-N-{4-[(5-dimethylaminonaphthalene)-1-sulfonamido]butyl}acetamide] | 69 to 71 °C | 264 | 230 nm | 494 nm | almost inactive | > 50 µM | 45% | > 50 µM | almost inactive |  |  |  |  | 
COc1ccc(-c2noc(CC(=O)Nc3ccc(NS(=O)(=O)c4cccc5c(N(C)C)cccc45)cc3)c2-c2ccc(OC)cc2)cc1 [Compound 3b, 2-[3,4-Bis(4-methoxyphenyl)isoxazol-5-yl]-N-{4-[(5-dimethylaminonaphthalene)-1-sulfonamido]phenyl}acetamide] | 120 to 122 °C | 154 | 360 nm | 514 nm |  | 0.05 µM | 44% | > 50 µM |  | > 1000 |  |  |  | 
COc1ccc(-c2noc(CC(=O)Nc3ccc(-c4ccc(NS(=O)(=O)c5cccc6c(N(C)C)cccc56)cc4)cc3)c2-c2ccc(OC)cc2)cc1 [Compound 3c, 2-[3,4-Bis(4-methoxyphenyl)isoxazol-5-yl]-N-{4-[(5-dimethylaminonaphthalene)-1-sulfonamido]biphenyl}acetamide] | 240 to 241 °C | 217 | 287 nm | 504 nm |  | 0.06 µM | 71% | > 50 µM |  | > 833 |  |  |  | 
COc1ccc(-c2noc(CC(=O)Nc3ccc(NC(=O)CCCCCCCCCCNS(=O)(=O)c4cccc5c(N(C)C)cccc45)cc3)c2-c2ccc(OC)cc2)cc1 [Compound 9] | 140 to 143 °C | 222 | 274 nm | 496 nm |  | 0.7 µM | 83% | > 50 µM |  | > 71 |  |  |  | 

Other lines, results leading:

melting point | Stokes Shift ([1]; PBS solution, 10^−5 M) | λabs ([1]; PBS solution, 10^−5 M) | λem ([1]; PBS solution, 10^−5 M) | COX-1 inhibitory activity (in words) (COX-1) | IC50 (COX-1) | inhibition at 50 µM (COX-1) | IC50 (COX-2) | COX-2 inhibitory activity (in words) (COX-2) | SI (selectivity index) (COX-1) | Stokes Shift ([1]; ethanol (10^−5 M)) | λabs ([1]; ethanol (10^−5 M)) | λem ([1]; ethanol (10^−5 M)) | solubility in PBS [2] | Structure (SMILES)
66 to 69 °C |  |  |  |  | 12 µM | 74% | > 50 µM |  | > 4 | 273 | 248 ^b nm | 521 ^b nm |  | COc1ccc(-c2noc(CC(=O)NCCCCCCNS(=O)(=O)c3cccc4c(N(C)C)cccc34)c2-c2ccc(OC)cc2)cc1 [Compound 6a]
126 to 129 °C | 222 | 270 nm | 492 nm |  | 0.1 µM | 71% | > 50 µM |  | > 500 |  |  |  |  | COc1ccc(-c2noc(CC(=O)NCCCCCCCCCCCCNS(=O)(=O)c3cccc4c(N(C)C)cccc34)c2-c2ccc(OC)cc2)cc1 [Compound 6b, 2-[3,4-Bis(4-methoxyphenyl)-5-yl]-N-{4-[(5-dimethylaminonaphthalene)-1-sulfonamido]dodecyl}acetamide]
165 °C (dec.) | 82 | 482 nm | 564 nm |  | > 50 µM | 0% | > 50 µM |  |  |  |  |  |  | COc1ccc(-c2noc(CC(=O)NCCCCNc3ccc([N+](=O)[O-])c4nonc34)c2-c2ccc(OC)cc2)cc1 [Compound 13a, 2-(3,4-Bis(4-methoxyphenyl)isoxazol-5-yl)-N-(4-((7-nitrobenzo[c][1,2,5]oxadiazol-4-yl)amino)butyl)acetamide]
 | 64 | 490 nm | 554 nm |  | > 50 µM | 26% | > 50 µM |  |  |  |  |  |  | COc1ccc(-c2noc(CC(=O)NCCCCCCNc3ccc([N+](=O)[O-])c4nonc34)c2-c2ccc(OC)cc2)cc1 [Compound 13b, 2-(3,4-Bis(4-methoxyphenyl)isoxazol-5-yl)-N-(6-((7-nitrobenzo[c][1,2,5]oxadiazol-4-yl)amino)hexyl)acetamide]
 | 55 | 495 nm | 550 nm |  | > 50 µM | 28% | > 50 µM |  |  |  |  |  |  | COc1ccc(-c2noc(CC(=O)NCCCCCCCCCCCCNc3ccc([N+](=O)[O-])c4nonc34)c2-c2ccc(OC)cc2)cc1 [Compound 13c, 2-(3,4-Bis(4-methoxyphenyl)isoxazol-5-yl)-N-(12-((7-nitrobenzo[c][1,2,5]oxadiazol-4-yl)amino)dodecyl)acetamide]
110 to 111 °C | 96 | 450 nm | 546 nm |  | 0.08 µM | 51% | > 50 µM | almost inactive | > 625 |  |  |  |  | CCCN1C(=O)c2cccc3c(NCCCCCCNC(=O)Cc4onc(-c5ccc(OC)cc5)c4-c4ccc(OC)cc4)ccc(c23)C1=O [Compound 17a, 2-(3,4-Bis(4-methoxyphenyl)isoxazol-5-yl)-N-(6-((1,3-dioxo-2-propyl-2,3-dihydro-1H-benzo[de]isoquinolin-6-yl)amino)hexyl)acetamide]
112 to 115 °C |  |  |  |  | 0.15 µM | 49% | > 50 µM | almost inactive | > 333 | 92 | 450 ^b nm | 542 ^b nm | low solubility | CCCN1C(=O)c2cccc3c(Nc4ccc(NC(=O)Cc5onc(-c6ccc(OC)cc6)c5-c5ccc(OC)cc5)cc4)ccc(c23)C1=O [Compound 17b, 2-(3,4-Bis(4-methoxyphenyl)isoxazol-5-yl)-N-(4-((1,3-dioxo-2-propyl-2,3-dihydro-1H-benzo[de]isoquinolin-6-yl)amino)phenyl)acetamide]
